The values that follow come from ChEMBL document CHEMBL1155467, “Semisynthesis and acetylcholinesterase inhibitory activity of stemofoline alkaloids and analogues” (J Nat Prod, 2010).

The experiment in a line: Inhibition of AChE assessed as minimum drug level causing white zone of enzyme inhibition by TLC bioautography.

≈ marks a conversion by molar mass, not a printed value.

As for `COC1=C(C)C(=O)O/C1=C1\O[C@@]23OC4CC(C2[C@H]1C)N1CCC3[C@]41/C=C/[C@@H](C)O` (some centres not stated), the MIC was found to be 1.25 nM (≈ 0.501 ng/mL).
Take `CCCCC12C3CC4C5[C@@H](C)[C@](O)([C@]6(O)OC(=O)C(C)=C6OC)O[C@]5(O3)C1CCN42` (some centres not stated): the MIC was determined as 1.19 nM (≈ 0.501 ng/mL).
